Experimental data as given in patent US10450316B2, “Certain protein kinase inhibitor” (Chongqing Fochon Pharmaceutical Co., Ltd., priority 2015, dated 2019).

System: BE(2)-C cell
Experiment: Cell proliferation assay (MTS) in BE(2)-C cells
Type: cell-based
Details: Homo sapiens, inhibition of BE(2)-C cell proliferation, 48 h
Procedure: MTS testing kit was purchased from Promega. The DMEM, Fetal bovine serum and Penicillin-Streptomycin were purchased from Gibco. Dimethyl sulfoxide (DMSO) was purchased from Sigma.
To investigate whether a compound is able to inhibit the activity of CDK4/6 in cells, mechanism-based assays using BE(2)-C cell (ATCC® number:CRL-2268) were developed. In the assay, inhibition of CDK4/6 was detected by the inhibition of BE(2)-C cell cells proliferation. BE(2)-C cell cells were cultured in culture flasks to 40-80% confluence in DMEM plus 10% fetal bovine serum. Cells were collected and plated onto 96-well plates at cell density of 3000 cells/well. Plates were incubated overnight at 37° C., with 5% CO2 to adhere. Compounds were added to the plates, the final compound concentrations were 10000, 3333, 1111, […], 123.5, 41.2, 13.7, 4.6 and 1.5 nM. Place plates at 37° C., with 5% CO2 for 48 h. After removing the medium, 20 μl MTS/100 μl medium mixture solution were added to each well and incubate the plates for exactly 2 hours. The reaction was terminated by adding 25 μl 10% SDS per well. Measure absorbance at 490 nm and 650 nm (reference wavelength). IC50 was calculated using GraphPad Prism 5.0.
Select compounds prepared as described above were assayed according to the biological procedures described herein. “++++” stands for IC50 value below about 10 nM. “+++” stands for IC50 value between greater than about 10 nM to about 100 nM. “++” stands for IC50 value between greater than about 100 nM to about […]. “+” stands for IC50 value greater than 1 μM.

## CC1CCc2nc3c(F)cc(-c4nc(Nc5ccc(CN6CCNCC6)cn5)ncc4F)cc3n21 (stereo in doubt) [Example 155, (R)-5-fluoro-4-(5-fluoro-1-methyl-2,3-dihydro-1H-benzo[d]pyrrolo[1,2-a]imidazol-7-yl)-N-(5-(piperazin-1-ylmethyl)pyridin-2-yl)pyrimidin-2-amine]
  IC50: > 100 nM

## OC[C@@H]1CCc2nc3c(F)cc(-c4nc(Nc5ccc(CN6CCNCC6)cn5)ncc4F)cc3n21 [Example 1, (S)-(5-fluoro-7-(5-fluoro-2-((5-(piperazin-1-ylmethyl)pyridin-2-yl)amino)pyrimidin-4-yl)-2,3-dihydro-1H-benzo[d]pyrrolo[1,2-a]imidazol-1-yl)methanol]
  IC50: > 1000 nM

## CN1CCN(Cc2ccc(Nc3ncc(F)c(-c4cc(F)c5nc6n(c5c4)[C@H](CO)CC6)n3)nc2)CC1 [Example 2, (S)-(5-fluoro-7-(5-fluoro-2-((5-((4-methylpiperazin-1-yl)methyl)pyridin-2-yl)amino)pyrimidin-4-yl)-2,3-dihydro-1H-benzo[d]pyrrolo[1,2-a]imidazol-1-yl)methanol]
  IC50: > 100 nM

## CCN1CCN(Cc2ccc(Nc3ncc(F)c(-c4cc(F)c5nc6n(c5c4)[C@H](CO)CC6)n3)nc2)CC1 [Example 3, (S)-(7-(2-((5-((4-ethylpiperazin-1-yl)methyl)pyridin-2-yl)amino)-5-fluoropyrimidin-4-yl)-5-fluoro-2,3-dihydro-1H-benzo[d]pyrrolo[1,2-a]imidazol-1-yl) methanol]
  IC50: > 100 nM

## FC[C@@H]1CCc2nc3c(F)cc(-c4nc(Nc5ccc(CN6CCNCC6)cn5)ncc4F)cc3n21 [Example 4, (S)-5-fluoro-4-(5-fluoro-1-(fluoromethyl)-2,3-dihydro-1H-benzo[d]pyrrolo[1,2-a]imidazol-7-yl)-N-(5-(piperazin-1-ylmethyl)pyridin-2-yl)pyrimidin-2-amine]
  IC50: > 100 nM

## CN1CCN(Cc2ccc(Nc3ncc(F)c(-c4cc(F)c5nc6n(c5c4)[C@H](CF)CC6)n3)nc2)CC1 [Example 5, (S)-5-fluoro-4-(5-fluoro-1-(fluoromethyl)-2,3-dihydro-1H-benzo[d]pyrrolo[1,2-a]imidazol-7-yl)-N-(5-((4-methylpiperazin-1-yl)methyl)pyridin-2-yl)pyrimidin-2-amine]
  IC50: > 100 nM

## CCN1CCN(Cc2ccc(Nc3ncc(F)c(-c4cc(F)c5nc6n(c5c4)[C@H](CF)CC6)n3)nc2)CC1 [Example 6, (S)—N-(5-((4-ethylpiperazin-1-yl)methyl)pyridin-2-yl)-5-fluoro-4-(5-fluoro-1-(fluoromethyl)-2,3-dihydro-1H-benzo[d]pyrrolo[1,2-a]imidazol-7-yl)pyrimidin-2-amine]
  IC50: > 100 nM

## COC[C@@H]1CCc2nc3c(F)cc(-c4nc(Nc5ccc(CN6CCNCC6)cn5)ncc4F)cc3n21 [Example 7, (S)-5-fluoro-4-(5-fluoro-1-(methoxymethyl)-2,3-dihydro-1H-benzo[d]pyrrolo[1,2-a]imidazol-7-yl)-N-(5-(piperazin-1-ylmethyl)pyridin-2-yl)pyrimidin-2-amine]
  IC50: > 100 nM

## COC[C@@H]1CCc2nc3c(F)cc(-c4nc(Nc5ccc(CN6CCN(C)CC6)cn5)ncc4F)cc3n21 [Example 8, (S)-5-fluoro-4-(5-fluoro-1-(methoxymethyl)-2,3-dihydro-1H-benzo[d]pyrrolo[1,2-a]imidazol-7-yl)-N-(5-((4-methylpiperazin-1-yl)methyl)pyridin-2-yl)pyrimidin-2-amine]
  IC50: > 100 nM

## CCN1CCN(Cc2ccc(Nc3ncc(F)c(-c4cc(F)c5nc6n(c5c4)[C@H](COC)CC6)n3)nc2)CC1 [Example 9, (S)—N-(5-((4-ethylpiperazin-1-yl)methyl)pyridin-2-yl)-5-fluoro-4-(5-fluoro-1-(methoxymethyl)-2,3-dihydro-1H-benzo[d]pyrrolo[1,2-a]imidazol-7-yl)pyrimidin-2-amine]
  IC50: > 100 nM

## Fc1cnc(Nc2ccc(CN3CCNCC3)cn2)nc1-c1cc(F)c2nc3n(c2c1)[C@H](C(F)F)CC3 [Example 10, (S)-4-(1-(difluoromethyl)-5-fluoro-2,3-dihydro-1H-benzo[d]pyrrolo[1,2-a]imidazol-7-yl)-5-fluoro-N-(5-(piperazin-1-ylmethyl)pyridin-2-yl)pyrimidin-2-amine]
  IC50: > 100 nM

## Fc1cnc(Nc2ccc(CN3CCNCC3)cn2)nc1-c1cc(F)c2nc3n(c2c1)C1(CC3)CC1 [Example 13, 5-fluoro-4-(5-fluoro-2,3-dihydrospiro[benzo[d]pyrrolo[1,2-a]imidazole-1,1′-cyclopropan]-7-yl)-N-(5-(piperazin-1-ylmethyl)pyridin-2-yl)pyrimidin-2-amine]
  IC50: > 100 nM

## CN1CCN(Cc2ccc(Nc3ncc(F)c(-c4cc(F)c5nc6n(c5c4)C4(CC6)CC4)n3)nc2)CC1 [Example 14, 5-fluoro-4-(5-fluoro-2,3-dihydrospiro[benzo[d]pyrrolo[1,2-a]imidazole-1,1′-cyclopropan]-7-yl)-N-(5-((4-methylpiperazin-1-yl)methyl)pyridin-2-yl)pyrimidin-2-amine]
  IC50: > 100 nM

## CCN1CCN(Cc2ccc(Nc3ncc(F)c(-c4cc(F)c5nc6n(c5c4)C4(CC6)CC4)n3)nc2)CC1 [Example 15, N-(5-((4-ethylpiperazin-1-yl)methyl)pyridin-2-yl)-5-fluoro-4-(5-fluoro-2,3-dihydrospiro[benzo[d]pyrrolo[1,2-a]imidazole-1,1′-cyclopropan]-7-yl)pyrimidin-2-amine]
  IC50: > 100 nM

## Fc1cnc(Nc2ccc(CN3CCNCC3)cn2)nc1-c1cc(F)c2nc3n(c2c1)[C@H](C(F)(F)F)CC3 [Example 16, (S)-5-fluoro-4-(5-fluoro-1-(trifluoromethyl)-2,3-dihydro-1H-benzo[d]pyrrolo[1,2-a]imidazol-7-yl)-N-(5-(piperazin-1-ylmethyl)pyridin-2-yl)pyrimidin-2-amine]
  IC50: 10 to 100 nM

## CN1CCN(Cc2ccc(Nc3ncc(F)c(-c4cc(F)c5nc6n(c5c4)[C@H](C(F)(F)F)CC6)n3)nc2)CC1 [Example 17, (S)-5-fluoro-4-(5-fluoro-1-(trifluoromethyl)-2,3-dihydro-1H-benzo[d]pyrrolo[1,2-a]imidazol-7-yl)-N-(5-((4-methylpiperazin-1-yl)methyl)pyridin-2-yl)pyrimidin-2-amine]
  IC50: 10 to 100 nM

## CCN1CCN(Cc2ccc(Nc3ncc(F)c(-c4cc(F)c5nc6n(c5c4)[C@H](C(F)(F)F)CC6)n3)nc2)CC1 [Example 18, (S)—N-(5-((4-ethylpiperazin-1-yl)methyl)pyridin-2-yl)-5-fluoro-4-(5-fluoro-1-(trifluoromethyl)-2,3-dihydro-1H-benzo[d]pyrrolo[1,2-a]imidazol-7-yl)pyrimidin-2-amine]
  IC50: 10 to 100 nM

## FC[C@@H]1CCc2nc3c(F)cc(-c4nc(Nc5ccc(CN6CCN7CCC[C@@H]7C6)cn5)ncc4F)cc3n21 [Example 19, 5-fluoro-4-((S)-5-fluoro-1-(fluoromethyl)-2,3-dihydro-1H-benzo[d]pyrrolo[1,2-a]imidazol-7-yl)-N-(5-(((R)-hexahydropyrrolo[1,2-a]pyrazin-2(1H)-yl)methyl)pyridin-2-yl)pyrimidin-2-amine]
  IC50: < 10 nM

## FC[C@@H]1CCc2nc3c(F)cc(-c4nc(Nc5ccc(CN6CC7(CCNCC7)C6)cn5)ncc4F)cc3n21 [Example 20, (S)-N-(5-((2,7-diazaspiro[3.5]nonan-2-yl)methyl)pyridin-2-yl)-5-fluoro-4-(5-fluoro-1-(fluoro-methyl)-2,3-dihydro-1H-benzo[d]pyrrolo[1,2-a]imidazol-7-yl)pyrimidin-2-amine]
  IC50: > 1000 nM

## CN1CCC2(CC1)CN(Cc1ccc(Nc3ncc(F)c(-c4cc(F)c5nc6n(c5c4)[C@H](CF)CC6)n3)nc1)C2 [Example 21, (S)-5-fluoro-4-(5-fluoro-1-(fluoromethyl)-2,3-dihydro-1H-benzo[d]pyrrolo[1,2-a]imidazol-7-yl)-N-(5-((7-methyl-2,7-diazaspiro[3.5]nonan-2-yl)methyl)pyridin-2-yl)pyrimidin-2-amine]
  IC50: > 100 nM

## CCN1CCC2(CC1)CN(Cc1ccc(Nc3ncc(F)c(-c4cc(F)c5nc6n(c5c4)[C@H](CF)CC6)n3)nc1)C2 [Example 22, (S)-N-(5-((7-ethyl-2,7-diazaspiro[3.5]nonan-2-yl)methyl)pyridin-2-yl)-5-fluoro-4-(5-fluoro-1-(fluoromethyl)-2,3-dihydro-1H-benzo[d]pyrrolo[1,2-a]imidazol-7-yl)pyrimidin-2-amine]
  IC50: > 100 nM

## FC[C@@H]1CCc2nc3c(F)cc(-c4nc(Nc5ccc(CN6CC7(CNC7)C6)cn5)ncc4F)cc3n21 [Example 23, (S)-N-(5-((2,6-diazaspiro[3.3]heptan-2-yl)methyl)pyridin-2-yl)-5-fluoro-4-(5-fluoro-1-(fluoromethyl)-2,3-dihydro-1H-benzo[d]pyrrolo[1,2-a]imidazol-7-yl)pyrimidin-2-amine]
  IC50: > 1000 nM

## CN1CC2(C1)CN(Cc1ccc(Nc3ncc(F)c(-c4cc(F)c5nc6n(c5c4)[C@H](CF)CC6)n3)nc1)C2 [Example 24, (S)-5-fluoro-4-(5-fluoro-1-(fluoromethyl)-2,3-dihydro-1H-benzo[d]pyrrolo[1,2-a]imidazol-7-yl)-N-(5-((6-methyl-2,6-diazaspiro[3.3]heptan-2-yl)methyl)pyridin-2-yl)pyrimidin-2-amine]
  IC50: > 100 nM
